Test results: ChEMBL document CHEMBL5365467 (J Med Chem, 2023); call rule not given here

How the values were obtained:
[1] = molecular target: Protein cereblon/Androgen receptor (Homo sapiens, UniProt P10275+Q96SW2); assay: PROTAC activity at AR/CRBN in AR-positive human VCaP cells assessed as induction of androgen receptor degradation measured at 24 hrs; assay type: cell-based
[2] = molecular target: Protein cereblon (Homo sapiens, UniProt Q96SW2); assay: Binding affinity to CRBN (unknown origin) assessed as inhibition constant
[3] = molecular target: Protein cereblon/Androgen receptor (Homo sapiens, UniProt P10275+Q96SW2, T878A); assay: PROTAC activity at AR T878A mutant/CRBN in human LNCaP cells assessed as induction of androgen receptor degradation measured at 24 hrs by Western blot analysis; assay type: cell-based
[4] = test system: VCaP; assay: Growth inhibition in human VCaP cells
[5] = Half life in Sprague-Dawley rat at 2 mg/kg, iv measured upto 24 hrs by LC-MS/MS analysis; details: in vivo
[6] = Volume of distribution at steady state in Sprague-Dawley rat at 2 mg/kg, iv measured upto 24 hrs by LC-MS/MS analysis; details: in vivo
[7] = Clearance in Sprague-Dawley rat at 2 mg/kg, iv measured upto 24 hrs by LC-MS/MS analysis; details: in vivo
[8] = Half life in Sprague-Dawley rat at 5 mg/kg, po measured upto 24 hrs by LC-MS/MS analysis; details: in vivo
[9] = in vivo; details: Sprague-Dawley, rat, iv, 2 mg/kg
[10] = in vivo; details: Sprague-Dawley, rat, po, 5 mg/kg
[11] = in vivo; details: Sprague-Dawley, rat, po, 5 mg/kg; remark: listed apart in the source
[12] = in vivo; details: Sprague-Dawley, rat, po, 5 mg/kg; remark: listed apart in the source
[13] = molecular target: T1, Androgen receptor (Homo sapiens, UniProt P10275)
T1 sequence (P10275 whole entry): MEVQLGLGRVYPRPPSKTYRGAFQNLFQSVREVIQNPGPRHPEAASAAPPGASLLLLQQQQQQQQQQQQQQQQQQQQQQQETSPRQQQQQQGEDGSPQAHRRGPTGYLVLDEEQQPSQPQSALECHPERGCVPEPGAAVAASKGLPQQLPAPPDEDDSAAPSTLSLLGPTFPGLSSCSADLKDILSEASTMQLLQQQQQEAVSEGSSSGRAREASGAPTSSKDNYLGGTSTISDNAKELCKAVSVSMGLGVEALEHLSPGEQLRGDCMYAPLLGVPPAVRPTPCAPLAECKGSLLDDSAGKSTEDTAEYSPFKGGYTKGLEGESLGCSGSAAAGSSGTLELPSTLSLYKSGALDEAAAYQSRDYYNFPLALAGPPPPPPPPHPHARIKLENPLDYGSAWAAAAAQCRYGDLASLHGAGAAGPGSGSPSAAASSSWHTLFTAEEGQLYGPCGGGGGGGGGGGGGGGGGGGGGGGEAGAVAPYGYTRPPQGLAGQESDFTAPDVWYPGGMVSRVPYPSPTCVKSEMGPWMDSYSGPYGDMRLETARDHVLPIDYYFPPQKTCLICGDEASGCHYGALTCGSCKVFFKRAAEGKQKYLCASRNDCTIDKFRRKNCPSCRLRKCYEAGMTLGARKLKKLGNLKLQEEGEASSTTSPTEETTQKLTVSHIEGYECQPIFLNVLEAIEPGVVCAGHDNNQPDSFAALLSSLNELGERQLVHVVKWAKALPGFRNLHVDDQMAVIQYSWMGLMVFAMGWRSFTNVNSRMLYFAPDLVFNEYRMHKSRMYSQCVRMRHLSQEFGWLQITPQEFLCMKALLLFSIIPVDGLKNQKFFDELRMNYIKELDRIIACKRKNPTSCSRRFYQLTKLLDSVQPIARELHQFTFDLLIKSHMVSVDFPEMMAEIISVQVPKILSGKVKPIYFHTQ

[14] = Half life in Sprague-Dawley rat at 1 mg/kg, iv measured upto 24 hrs by LC-MS/MS analysis; assay type: ADME, organism-based; details: in vivo
[15] = AUC (0 to t) in Sprague-Dawley rat at 1 mg/kg, iv measured upto 24 hrs by LC-MS/MS analysis; assay type: ADME, organism-based; design: dose 1 mg/kg, time < 24 hrs, route iv; details: in vivo
[16] = Volume of distribution at steady state in Sprague-Dawley rat at 1 mg/kg, iv measured upto 24 hrs by LC-MS/MS analysis; assay type: ADME, organism-based; details: in vivo, read-out: Vdss
[17] = Clearance in Sprague-Dawley rat at 1 mg/kg, iv measured upto 24 hrs by LC-MS/MS analysis; assay type: ADME, organism-based; details: in vivo
[18] = Half life in Sprague-Dawley rat at 3 mg/kg, po measured upto 24 hrs by LC-MS/MS analysis; assay type: ADME, organism-based; details: in vivo
[19] = Cmax in Sprague-Dawley rat at 3 mg/kg, po measured upto 24 hrs by LC-MS/MS analysis; assay type: ADME, organism-based; design: dose 3 mg/kg, time < 24 hrs, route po; details: in vivo
[20] = AUC (0 to t) in Sprague-Dawley rat at 3 mg/kg, po measured upto 24 hrs by LC-MS/MS analysis; assay type: ADME, organism-based; design: dose 3 mg/kg, time < 24 hrs, route po; details: in vivo
[21] = Oral bioavailability in Sprague-Dawley rat at 3 mg/kg measured upto 24 hrs by LC-MS/MS analysis; assay type: ADME, organism-based; details: in vivo

Chain of Protein cereblon/Androgen receptor (Homo sapiens, UniProt P10275+Q96SW2) (Q96SW2 whole entry, one chain of several): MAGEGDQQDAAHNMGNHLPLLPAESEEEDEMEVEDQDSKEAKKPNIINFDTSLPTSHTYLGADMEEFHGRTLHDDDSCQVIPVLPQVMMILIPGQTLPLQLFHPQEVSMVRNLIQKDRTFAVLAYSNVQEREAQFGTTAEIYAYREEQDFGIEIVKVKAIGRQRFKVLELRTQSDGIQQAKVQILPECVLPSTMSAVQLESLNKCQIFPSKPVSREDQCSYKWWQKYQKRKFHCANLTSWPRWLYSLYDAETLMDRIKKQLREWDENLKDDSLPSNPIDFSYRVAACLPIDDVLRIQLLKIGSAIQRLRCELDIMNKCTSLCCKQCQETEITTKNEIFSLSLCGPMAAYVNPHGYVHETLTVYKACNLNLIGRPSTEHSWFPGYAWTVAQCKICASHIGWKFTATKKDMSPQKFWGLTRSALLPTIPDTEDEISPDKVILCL
Chain of Protein cereblon (Q96SW2 whole entry): as the sequence (Q96SW2 whole entry, one chain of several) above

## N#Cc1ccc(N2CCC3(CCN(c4ccc(C(=O)N5CCC(CN6Cc7cc8c(cc7C6)C(=O)N(C6CCC(=O)NC6=O)C8=O)CC5)cc4)CC3)C2)cc1Cl (stereo not drawn)
[1]; read-out: DC50
  DC50: 5.7 nM

## N#Cc1ccc(N2CCC3(CCN(c4ccc(C(=O)N5CCC(N6Cc7cc8c(cc7C6)C(=O)N(C6CCC(=O)NC6=O)C8=O)CC5)cc4)CC3)C2)cc1Cl (stereo not drawn)
[1]; read-out: DC50
  DC50: 9.7 nM

## N#Cc1ccc(N2CCC3(CCN(c4ccc(C(=O)N5CCC(CCN6CCc7cc8c(cc7CC6)C(=O)N(C6CCC(=O)NC6=O)C8=O)CC5)cc4)CC3)C2)cc1Cl (stereo not drawn)
[1]; read-out: DC50
  DC50: 3000 nM

## CN1CCc2cc3c(cc2CC1)C(=O)N(C1CCC(=O)NC1=O)C3=O (stereo not drawn)
[2]
  Ki: 7300 nM

## C[C@H]1CC2(CCN(c3ccc(C(=O)N4CCC(F)(CN5Cc6cc7c(cc6C5)C(=O)N(C5CCC(=O)NC5=O)C7=O)CC4)cc3)CC2)CN1c1ccc(C#N)c(Cl)c1 (stereo partly drawn)
[1]; read-out: DC50
  DC50: 0.9 nM
[3]
  DC50: 3.7 nM
[4]
  IC50: 18 nM
[5]
  half-life at 24 h: 7.9 h
[6]
  Vd at 24 h: 4.2 L/kg
[7]
  clearance at 24 h: 7.83 mL/min/kg
[8]
  half-life at 24 h: 5.2 h
[9]
  AUC(0-t) at 24 h: 4000 ng·h/mL
[10]
  Cmax at 24 h: 216 ng/mL
[11]
  AUC(0-t) at 24 h: 1820 ng·h/mL
[12]
  bioavailability at 24 h: 18%

## CN1CCN(c2ccc(C(=O)N[C@H]3CC[C@H](N(C)c4ccc(C#N)c(Cl)c4)CC3)cc2)CC1
[13]
  IC50: 15 nM

## N#Cc1ccc(N2CCC3(CCN(c4ccc(C(=O)N5CCC(N6CCc7cc8c(cc7C6)C(=O)N(C6CCC(=O)NC6=O)C8=O)CC5)cc4)CC3)C2)cc1Cl (stereo not drawn)
[1]; read-out: DC50
  DC50: 73 nM

## C[C@@H]1CC2(CCN(c3ccc(C(=O)N4CCC(CN5Cc6cc7c(cc6C5)C(=O)N(C5CCC(=O)NC5=O)C7=O)CC4)cc3)CC2)CN1c1ccc(C#N)c(Cl)c1 (stereo partly drawn)
[1]; read-out: DC50
  DC50: 385 nM

## CN1CCN(C(=O)c2ccc(N3CCC4(CCN(c5ccc(C#N)c(Cl)c5)CC4)C3)cc2)CC1
[13]
  IC50: 5400 nM

## CN1CCN(c2ccc(C(=O)N[C@H]3CC[C@H](Oc4ccc(C#N)c(Cl)c4)CC3)cc2)CC1
[13]
  IC50: 55 nM

## C[C@H]1CC2(CCN(c3cnc(C(=O)N4CCC(CN5Cc6cc7c(cc6C5)C(=O)N(C5CCC(=O)NC5=O)C7=O)CC4)cn3)CC2)CN1c1ccc(C#N)c(Cl)c1 (stereo partly drawn)
[4]
  IC50: 10 nM
[14]
  half-life: 1.4 h
[15]
  AUC(0-t) at 24 h: 495 ng·h/mL
[16]
  Vd: 2.3 L/kg
[17]
  clearance: 33.3 mL/min/kg
[18]
  half-life: 1.2 h
[19]
  Cmax: 55 ng/mL
[20]
  AUC(0-t) at 24 h: 235 ng·h/mL
[21]
  bioavailability: 15%

## C[C@H]1CC2(CCN(c3ccc(C(=O)N4CCC(O)(CN5Cc6cc7c(cc6C5)C(=O)N(C5CCC(=O)NC5=O)C7=O)CC4)cc3)CC2)CN1c1ccc(C#N)c(Cl)c1 (stereo partly drawn)
[1]; read-out: DC50
  DC50: 290 nM

## C[C@H]1CC2(CCN(c3ccc(C(=O)N4CCC(N5Cc6cc7c(cc6C5)C(=O)N(C5CCC(=O)NC5=O)C7=O)CC4)cc3)CC2)CN1c1ccc(C#N)c(Cl)c1 (stereo partly drawn)
[1]; read-out: DC50
  DC50: 0.4 nM
[3]
  DC50: 0.8 nM
[4]
  IC50: 16.5 nM
[5]
  half-life at 24 h: 5.5 h
[6]
  Vd at 24 h: 6.1 L/kg
[7]
  clearance at 24 h: 15.3 mL/min/kg
[8]
  half-life at 24 h: 5.5 h
[9]
  AUC(0-t) at 24 h: 2100 ng·h/mL
[10]
  Cmax at 24 h: 410 ng/mL
[11]
  AUC(0-t) at 24 h: 4280 ng·h/mL
[12]
  bioavailability at 24 h: 81%

## O=C1CCC(N2C(=O)c3ccc(N4CCC4)cc3C2=O)C(=O)N1 (stereo not drawn)
[2]
  Ki: 500 nM

## C[C@@H]1CC2(CCN(c3ccc(C(=O)N4CCN(C)CC4)cc3)CC2)CN1c1ccc(C#N)c(Cl)c1
[1]
  DC50: Not Active

## COC1(CN2Cc3cc4c(cc3C2)C(=O)N(C2CCC(=O)NC2=O)C4=O)CCN(C(=O)c2ccc(N3CCC4(CC3)C[C@H](C)N(c3ccc(C#N)c(Cl)c3)C4)cc2)CC1 (stereo partly drawn)
[1]; read-out: DC50
  DC50: 0.3 nM
[3]
  DC50: 1 nM
[4]
  IC50: 4.9 nM
[5]
  half-life at 24 h: 4.9 h
[6]
  Vd at 24 h: 4.1 L/kg
[7]
  clearance at 24 h: 13.8 mL/min/kg
[8]
  half-life at 24 h: 5.6 h
[9]
  AUC(0-t) at 24 h: 2390 ng·h/mL
[10]
  Cmax at 24 h: 179 ng/mL
[11]
  AUC(0-t) at 24 h: 1320 ng·h/mL
[12]
  bioavailability at 24 h: 22%

## C[C@H]1CC2(CCN(c3ccc(C(=O)N4CC(CN5Cc6cc7c(cc6C5)C(=O)N(C5CCC(=O)NC5=O)C7=O)C4)cc3)CC2)CN1c1ccc(C#N)c(Cl)c1 (stereo partly drawn)
[4]
  IC50: 25.7 nM
[5]
  half-life at 24 h: 1.4 h
[6]
  Vd at 24 h: 1.8 L/kg
[7]
  clearance at 24 h: 25 mL/min/kg
[8]
  half-life at 24 h: 1.2 h
[9]
  AUC(0-t) at 24 h: 1380 ng·h/mL
[10]
  Cmax at 24 h: 78 ng/mL
[11]
  AUC(0-t) at 24 h: 310 ng·h/mL
[12]
  bioavailability at 24 h: 9%
